Values quoted from earlier work, collected in patent US20230157586A1 (United States Government as Represented by the Department …, priority 2021, published 2023).
Changes are numbered by the printed parent chain.

Tests used:
albumin = albumin (Homo sapiens, UniProt P02768); details: 37° C.; same for each subject
[1] = target: T1, mutant CBG protein (GLy237Val substitution, SERPINA6) (Homo sapiens, UniProt P08185, G259V); details: previously reported; higher equilibrium dissociation constant KD
T1 sequence (P08185 23-405 G259V): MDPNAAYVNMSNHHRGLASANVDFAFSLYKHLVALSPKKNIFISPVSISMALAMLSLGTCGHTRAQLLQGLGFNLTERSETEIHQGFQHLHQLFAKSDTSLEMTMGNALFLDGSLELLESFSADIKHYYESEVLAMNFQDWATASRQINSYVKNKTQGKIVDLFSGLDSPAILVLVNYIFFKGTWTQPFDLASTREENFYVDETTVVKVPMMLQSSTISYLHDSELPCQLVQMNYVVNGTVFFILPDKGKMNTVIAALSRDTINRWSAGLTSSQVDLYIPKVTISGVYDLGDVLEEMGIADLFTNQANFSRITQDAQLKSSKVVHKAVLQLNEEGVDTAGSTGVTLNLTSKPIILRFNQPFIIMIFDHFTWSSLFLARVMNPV

[2] = target: T2, corticosteroid binding globulin (CBG) (Homo sapiens, UniProt P08185); details: 37° C.; same for each subject
T2 sequence (P08185 23-405): T1 sequence (P08185 23-405 G259V) with V237G

Sequence of albumin (P02768 25-609): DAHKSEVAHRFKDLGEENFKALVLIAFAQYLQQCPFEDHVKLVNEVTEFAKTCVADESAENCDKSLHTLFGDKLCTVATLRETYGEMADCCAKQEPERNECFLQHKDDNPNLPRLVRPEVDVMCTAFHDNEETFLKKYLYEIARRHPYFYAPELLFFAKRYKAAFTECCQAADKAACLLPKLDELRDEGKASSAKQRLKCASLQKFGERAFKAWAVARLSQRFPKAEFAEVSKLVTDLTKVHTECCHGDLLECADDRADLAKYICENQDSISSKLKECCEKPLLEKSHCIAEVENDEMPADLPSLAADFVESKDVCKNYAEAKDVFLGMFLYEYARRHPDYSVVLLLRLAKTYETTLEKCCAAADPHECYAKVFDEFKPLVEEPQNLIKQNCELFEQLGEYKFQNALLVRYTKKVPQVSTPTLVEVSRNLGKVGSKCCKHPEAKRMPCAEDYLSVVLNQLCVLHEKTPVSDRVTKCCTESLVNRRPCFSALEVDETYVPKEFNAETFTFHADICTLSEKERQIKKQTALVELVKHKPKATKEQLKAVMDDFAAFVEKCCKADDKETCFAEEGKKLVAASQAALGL

κ1^A association rate constant (on-rate), albumin (albumin): 8950 M/s
κ−1^A dissociation rate constant (off-rate), albumin (albumin): 2.2 s⁻¹
κ1^C association rate constant (on-rate), CBG [2]: 3.62e+07 M/s
κ−1^C dissociation rate constant (off-rate), CBG [2]: 0.88 s⁻¹
SMILES: C[C@]12CCC(=O)C=C1CC[C@@H]1[C@@H]2[C@@H](O)C[C@@]2(C)[C@H]1CC[C@]2(O)C(=O)CO [cortisol]
cortisol binding affinity of mutant CBG compared to wild type CBG protein [1]: markedly decreased cortisol binding affinity
